Experimental data as given in paper PMC6333442, “Conserved allosteric pathways for activation of TRPV3 revealed through engineering vanilloid-sensitivity” (eLife, 2019).

Legend:
[1] = tested on: TRPV3-6M/V2P (pore domain of rat TRPV2 in TRPV3-6M); experiment: Two-electrode voltage clamp, TRPV3-6M/V2P chimera in oocytes; format: cell-based, mouse; settings: RR 50 µM
Method: All channel constructs were expressed in Xenopus laevis oocytes and studied using the two-electrode voltage clamp technique (TEVC) following 1–4 days of incubation after cRNA injection. The animal care and experimental procedures were performed in accordance with the Guide for the Care and Use of Laboratory Animals and were approved by the Animal Care and Use Committee of the National Institute of Neurological Disorders and Stroke (Animal protocol number 1253–17). Oocytes were removed surgically and incubated with agitation for 1 hr in a solution containing (in mM) 82.5 NaCl, 2.5 KCl, 1 MgCl2, 5 HEPES, pH 7.6 (with NaOH), and collagenase (2 mg/ml; Worthington Biochemical, Lakewood, NJ). Defolliculated oocytes were injected with cRNA for each of the constructs and incubated at 17°C in a solution containing (in mM) 96 NaCl, 2 KCl, 1 MgCl2, 1.8 CaCl2, 5 HEPES, pH 7.6 (with NaOH), and gentamicin (50 μg/ml, GIBCO-BRL, Gaithersburg, MD). Oocyte membrane voltage was controlled using an OC-725C oocyte clamp (Warner Instruments, Hamden, CT). Data were filtered at 1–3 kHz and digitized at 20 kHz using pClamp software (Molecular Devices, Sunnyvale, CA) and a Digidata 1440A digitizer (Axon Instruments). Microelectrode resistances were 0.1–1 MΩ when filled with 3 M KCl. For recording TRP channel currents, the external recording solution contained (in mM) 100 KCl, 10 HEPES, pH 7.6 (with KOH). […]
For temperature-activation experiments, calcium-activated chloride currents were minimized by using calcium-free solution containing 30 µM Caccinh-A01 and recording at negative membrane voltages. Heat stimuli were achieved by passing the external recording solution through glass capillary spirals immersed in a water bath maintained at about 70°C, and recordings were performed during constant perfusion with temperature measured using a thermistor (TA-29, Warner Instruments) located close to the cell. […] The mean I vs T relations were calculated by automatically binning each of the recordings in temperature intervals of 2°C, and averaging a single data point within each interval per cell. […]

TRPV3-6M + 5PM = target: T1, TRPV3-6M + 5PM (Mus musculus, UniProt Q8K424, A560T/A606V/F522S/F625L/F656I/F666Y/H523E/L557M/Q580E/V587L/W521Y); experiment: Two-electrode voltage clamp, TRPV3-6M + 5PM in oocytes; format: cell-based; settings: capsaicin 20 μM, ±60 mV
T1 construct: expressed in transfected cells; host or cells: Xenopus laevis oocytes
T1 sequence (Q8K424 1-791 W521Y/F522S/H523E/L557M/A560T/Q580E/V587L/A606V/F625L/F656I/F666Y): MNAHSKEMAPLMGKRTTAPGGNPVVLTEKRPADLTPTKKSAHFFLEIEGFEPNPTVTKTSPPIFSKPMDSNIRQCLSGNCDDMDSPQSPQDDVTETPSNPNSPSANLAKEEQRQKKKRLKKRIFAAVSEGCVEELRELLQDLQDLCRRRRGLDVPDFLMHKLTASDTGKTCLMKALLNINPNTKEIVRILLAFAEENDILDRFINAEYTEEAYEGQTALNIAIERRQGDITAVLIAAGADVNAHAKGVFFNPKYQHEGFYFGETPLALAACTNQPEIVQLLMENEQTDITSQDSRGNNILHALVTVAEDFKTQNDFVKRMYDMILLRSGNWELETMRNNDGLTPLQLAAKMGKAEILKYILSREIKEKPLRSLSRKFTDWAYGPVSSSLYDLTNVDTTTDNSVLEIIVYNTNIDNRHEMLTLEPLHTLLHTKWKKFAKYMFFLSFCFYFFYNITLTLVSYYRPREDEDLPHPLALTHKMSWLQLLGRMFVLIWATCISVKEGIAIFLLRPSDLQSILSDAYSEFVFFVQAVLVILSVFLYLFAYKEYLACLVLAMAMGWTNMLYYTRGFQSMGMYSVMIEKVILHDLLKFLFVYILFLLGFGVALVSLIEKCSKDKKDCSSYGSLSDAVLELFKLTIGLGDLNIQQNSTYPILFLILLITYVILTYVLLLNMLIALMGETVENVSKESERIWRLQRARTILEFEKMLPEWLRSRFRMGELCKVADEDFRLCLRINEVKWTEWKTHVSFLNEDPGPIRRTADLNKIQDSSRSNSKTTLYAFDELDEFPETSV
Method: All channel constructs were expressed in Xenopus laevis oocytes and studied using the two-electrode voltage clamp technique (TEVC) following 1–4 days of incubation after cRNA injection. The animal care and experimental procedures were performed in accordance with the Guide for the Care and Use of Laboratory Animals and were approved by the Animal Care and Use Committee of the National Institute of Neurological Disorders and Stroke (Animal protocol number 1253–17). Oocytes were removed surgically and incubated with agitation for 1 hr in a solution containing (in mM) 82.5 NaCl, 2.5 KCl, 1 MgCl2, 5 HEPES, pH 7.6 (with NaOH), and collagenase (2 mg/ml; Worthington Biochemical, Lakewood, NJ). Defolliculated oocytes were injected with cRNA for each of the constructs and incubated at 17°C in a solution containing (in mM) 96 NaCl, 2 KCl, 1 MgCl2, 1.8 CaCl2, 5 HEPES, pH 7.6 (with NaOH), and gentamicin (50 μg/ml, GIBCO-BRL, Gaithersburg, MD). Oocyte membrane voltage was controlled using an OC-725C oocyte clamp (Warner Instruments, Hamden, CT). Data were filtered at 1–3 kHz and digitized at 20 kHz using pClamp software (Molecular Devices, Sunnyvale, CA) and a Digidata 1440A digitizer (Axon Instruments). Microelectrode resistances were 0.1–1 MΩ when filled with 3 M KCl. For recording TRP channel currents, the external recording solution contained (in mM) 100 KCl, 10 HEPES, pH 7.6 (with KOH). Experiments were performed at room temperature (~22°C), except as indicated otherwise. […] Current time courses were obtained by stepping membrane voltage every 2 s from a holding potential of 0 mV to either −60 or +60 mV for 100 ms, and plotting the mean steady-state current at the end of each voltage step as a function of total recording time. I-V relations were obtained similarly, but voltage was stepped every 2 s to a different value, in 10 mV increments and starting at −60 mV.

Row | SMILES | block of RTx-activated current [1] | channel activation (current response) (TRPV3-6M + 5PM)
1 | N.N.N.N.N.N.N.N.N.N.N.N.N.N.[Cl-].[Cl-].[Cl-].[Cl-].[Cl-].[Cl-].[O-2].[O-2].[Ru+3].[Ru+3].[Ru+4] [RR, ruthenium red] | readily blocked | –
2 | COc1cc(CNC(=O)CCCC/C=C/C(C)C)ccc1O [capsaicin] | – | cannot be activated
